The values below come from ChEMBL document CHEMBL4411338, “Convenient framework of poly functionalized (E)-2-benzylideno-(Z)-carbazolylideno cyanoacetamides via rearrangements as an efficient antibiofilm inhibitors with SAR study” (Bioorg Med Chem, 2019).

One series deals with Priestia megaterium. In words: Antibiofilm activity against ofloxacin-resistant Bacillus megaterium assessed as disruption of biofilm at 200 ug/ml after 24 hrs by crystal violet staining based ELISA relative to control. The series is classed as functional. A general note: ELISA stands for enzyme-linked immunosorbent assay.
Series [1] concerns Pseudomonas aeruginosa. In words: Antibiofilm activity against carbenicillin-resistant Pseudomonas aeruginosa assessed as disruption of biofilm at 200 ug/ml after 24 hrs by crystal violet staining based ELISA relative to control. The series is classed as functional.
A further series relates to Bacillus subtilis. Kind of series: Antibiofilm activity against tetracycline-resistant Bacillus subtilis assessed as disruption of biofilm at 200 ug/ml after 24 hrs by crystal violet staining based ELISA relative to control. The series is classed as functional.
Series [2] deals with Klebsiella pneumoniae. In words: Antibiofilm activity against tetracycline-resistant Klebsiella pneumoniae assessed as disruption of biofilm at 200 ug/ml after 24 hrs by crystal violet staining based ELISA relative to control. The series is classed as functional.
In the next series the test system is Pseudomonas fluorescens. Kind of series: Antibiofilm activity against tetracycline-resistant Pseudomonas fluorescens assessed as disruption of biofilm at 200 ug/ml after 24 hrs by crystal violet staining based ELISA relative to control. The series is classed as functional.
Series [3] relates to Escherichia coli. In words: Antibiofilm activity against carbapenem-resistant Escherichia coli assessed as disruption of biofilm at 200 ug/ml after 24 hrs by crystal violet staining based ELISA relative to control. The series is classed as functional.
Series [4] deals with Klebsiella pneumoniae. Kind of series: Antibiofilm activity against carbapenem-resistant Klebsiella pneumoniae assessed as disruption of biofilm at 200 ug/ml after 24 hrs by crystal violet staining based ELISA relative to control. The series is classed as functional.
In series [5] the test system is Klebsiella pneumoniae. Kind of series: Antibiofilm activity against tetracycline-resistant Klebsiella pneumoniae assessed as disruption of biofilm at 100 ug/ml after 24 hrs by crystal violet staining based ELISA relative to control. The series is classed as functional.
Series [6] relates to Escherichia coli. In words: Antibiofilm activity against carbenicillin-resistant Escherichia coli assessed as disruption of biofilm at 100 ug/ml after 24 hrs by crystal violet staining based ELISA relative to control. The series is classed as functional.
Series [7] relates to Klebsiella pneumoniae. In words: Antibiofilm activity against carbenicillin-resistant Klebsiella pneumoniae assessed as disruption of biofilm at 200 ug/ml after 24 hrs by crystal violet staining based ELISA relative to control. The series is classed as functional.
Series [8] deals with Pseudomonas aeruginosa. In words: Antibiofilm activity against carbenicillin-resistant Pseudomonas aeruginosa assessed as disruption of biofilm at 100 ug/ml after 24 hrs by crystal violet staining based ELISA relative to control. The series is classed as functional.
The test system of series [9] is HEK293. Kind of series: Cytotoxicity against HEK293 cells assessed as reduction in cell viability at >75 ug/ml after 24 hrs by MTT assay. The series is classed as cell-based. Conditions: human, hek293, 24 h. Background: Tetrazolium assays rely on reduction of a dye to a coloured formazan, in cell work by metabolically active cells.
For series [10], the system named is Pseudomonas aeruginosa. Kind of series: Antibiofilm activity against carbenicillin-resistant Pseudomonas aeruginosa assessed as disruption of biofilm at 10 ug/ml by crystal violet/acridine orange staining based fluorescence microscopic analysis. The series is classed as functional, organism-based.
In series [11] the test system is Escherichia coli. In words: Antibiofilm activity against carbenicillin-resistant Escherichia coli assessed as disruption of biofilm at 10 ug/ml by crystal violet/acridine orange staining based fluorescence microscopic analysis. The series is classed as functional, organism-based.
Series [12] relates to Klebsiella pneumoniae. In words: Antibiofilm activity against tetracycline-resistant Klebsiella pneumoniae assessed as disruption of biofilm at 10 ug/ml by crystal violet/acridine orange staining based fluorescence microscopic analysis. The series is classed as functional, organism-based.
Series [13] concerns Klebsiella pneumoniae. In words: Antibiofilm activity against carbenicillin-resistant Klebsiella pneumoniae assessed as disruption of biofilm at 10 ug/ml by crystal violet/acridine orange staining based fluorescence microscopic analysis. The series is classed as functional, organism-based.
Series [14] has as its system Escherichia coli. Kind of series: Reduction in reactive oxygen species level in carbapenem-resistant Escherichia coli biofilm at 10 ug/ml measured after 2 to 6 hrs by DCFH-DA probe based UV-spectrofluorimetric method. The series is classed as functional, organism-based.
Series [15] deals with HEK293. Kind of series: Cytotoxicity against HEK293 cells assessed as reduction in cell viability up to 75 ug/ml after 24 hrs by MTT assay. The series is classed as cell-based. Conditions: human, hek293, 24 h.
For series [16], the system named is Escherichia coli. Kind of series: Antibiofilm activity against carbapenem-resistant Escherichia coli biofilm assessed as reactive oxygen species generation at 10 ug/ml after 1 hr by DCFH-DA probe based UV-spectrofluorimetric method relative to control. The series is classed as functional.

Activity calls are given as the source filed them. The calls are words filed in the database; no cut-off is given here.

Take `Cc1ccc2[nH]c3c(c2c1)CCC(=C\c1cccc(F)c1)/C3=C(\C#N)C(N)=O`: the inhibition (in general, the share of the control response that was lost under treatment) at 200 µg/mL with Priestia megaterium was determined as 21.1%; in the series with Pseudomonas aeruginosa [1], 25.3%; in the series with Bacillus subtilis it was 10%; in the series with Klebsiella pneumoniae [2], 0%; in the series on Pseudomonas fluorescens, 15%; in the series with Escherichia coli [3], 24.8%. For the same molecule, the inhibition at 200 µg/mL in the series with Klebsiella pneumoniae [4] amounted to 29%.
In the case of `Cc1ccc2[nH]c3c(c2c1)CCC(=C\c1cccs1)/C3=C(\C#N)C(N)=O`, the inhibition at 200 µg/mL with Priestia megaterium was determined as 4.5%; with Pseudomonas aeruginosa [1], 29.3%; with Bacillus subtilis, 28%; in the series on Klebsiella pneumoniae [2], 81%; in the series on Pseudomonas fluorescens it was 73%; in the series on Escherichia coli [3] it was 70%. Also, in the series with Klebsiella pneumoniae [4], the inhibition at 200 µg/mL worked out at 74%. The inhibition at 100 µg/mL with Klebsiella pneumoniae [5] and in the series with Escherichia coli [6] was 78% throughout.
Consider `COc1ccc(/C=C2\CCc3c([nH]c4ccc(C)cc34)\C2=C(\C#N)C(N)=O)cc1OC`, for which the inhibition at 200 µg/mL in the series on Priestia megaterium stood at 17.1%; with Pseudomonas aeruginosa [1] it was 67%; with Bacillus subtilis, 21%; in the series on Klebsiella pneumoniae [7], 82%; with Klebsiella pneumoniae [2] it was 78%; with Pseudomonas fluorescens, 31%. In addition, the results for the inhibition at 200 µg/mL with Escherichia coli [3] and in the series on Klebsiella pneumoniae [4] were 80% and 78%, respectively. Moreover, the inhibition at 100 µg/mL in the series on Escherichia coli [6] came to 78%.
As for `Cc1cccc2c3c([nH]c12)C(=C(/C#N)C(N)=O)/C(=C/c1cccs1)CC3`, the inhibition at 200 µg/mL in the series with Priestia megaterium was found to be 17.6%; with Pseudomonas aeruginosa [1], 24.1%; in the series with Bacillus subtilis it was 12%; in the series on Klebsiella pneumoniae [2], 27.9%; with Pseudomonas fluorescens, 0%; in the series with Escherichia coli [3] it was 22.8%. In addition, the inhibition at 200 µg/mL with Klebsiella pneumoniae [4] turned out to be 12%.
With `Cc1ccc2[nH]c3c(c2c1)CCC(=C\c1ccccn1)/C3=C(\C#N)C(N)=O`, the inhibition at 200 µg/mL with Priestia megaterium was found to be 18.2%; in the series on Pseudomonas aeruginosa [1], 17%; in the series with Bacillus subtilis it was 26%; with Klebsiella pneumoniae [2] it was 0%; in the series with Pseudomonas fluorescens it was 29%; in the series on Escherichia coli [3], 21.7%. The inhibition at 200 µg/mL in the series with Klebsiella pneumoniae [4] is 32%.
As for `Cc1ccc2c3c([nH]c2c1)C(=C(/C#N)C(N)=O)/C(=C/c1cccs1)CC3`, the inhibition at 200 µg/mL in the series on Priestia megaterium worked out at 15.7%; in the series on Pseudomonas aeruginosa [1], 18.9%; in the series on Bacillus subtilis it was 21%; in the series on Klebsiella pneumoniae [2], 3.5%; in the series on Pseudomonas fluorescens it was 28%; with Escherichia coli [3], 9.8%. Besides, the inhibition at 200 µg/mL in the series with Klebsiella pneumoniae [4] came out at 18%.
For `Cc1ccc2c3c([nH]c2c1)C(=C(/C#N)C(N)=O)/C(=C/c1ccccc1)CC3`, the inhibition at 200 µg/mL with Priestia megaterium was 13.1%; with Pseudomonas aeruginosa [1], 17%; in the series with Bacillus subtilis, 45%; with Klebsiella pneumoniae [2] it was 15.6%; in the series on Pseudomonas fluorescens, 26.4%; with Escherichia coli [3] it was 16%. In addition, the inhibition at 200 µg/mL with Klebsiella pneumoniae [4] worked out at 14%.
`COc1ccc(/C=C2\CCc3c([nH]c4cc(C)ccc34)\C2=C(\C#N)C(N)=O)cc1OC`: the inhibition at 200 µg/mL in the series with Priestia megaterium was 10.9%; with Pseudomonas aeruginosa [1] it was 15.3%; in the series on Bacillus subtilis, 32%; with Klebsiella pneumoniae [2], 18.3%; with Pseudomonas fluorescens, 5%; with Escherichia coli [3], 17.2%. Besides, the inhibition at 200 µg/mL in the series on Klebsiella pneumoniae [4] was 12%.
`O=C(O)c1cn(C2CC2)c2cc(N3CCNCC3)c(F)cc2c1=O` [CIPROFLOXACIN]: the inhibition at 200 µg/mL in the series with Priestia megaterium amounted to 56.3%; with Pseudomonas aeruginosa [1] it was 49.7%; with Bacillus subtilis, 23%; in the series with Klebsiella pneumoniae [2], 43%; in the series on Pseudomonas fluorescens it was 38%; in the series with Escherichia coli [3], 45%. The inhibition at 200 µg/mL in the series with Klebsiella pneumoniae [4] is 25.5%.
Consider `Cc1ccc2[nH]c3c(c2c1)CCC(=C\c1ccc(F)cc1)/C3=C(\C#N)C(N)=O`, for which the inhibition at 200 µg/mL was 32.4% in the series with Priestia megaterium; 19.3% in the series with Pseudomonas aeruginosa [1]; 56% in the series on Bacillus subtilis; 0% in the series on Klebsiella pneumoniae [2]; 11% in the series on Pseudomonas fluorescens; 13.4% in the series on Escherichia coli [3]. Moreover, the inhibition at 200 µg/mL with Klebsiella pneumoniae [4] turned out to be 17%.
As to `COc1ccc(/C=C2\CCc3c([nH]c4c(C)cccc34)\C2=C(\C#N)C(N)=O)cc1OC`, the inhibition at 200 µg/mL worked out at 6.1% in the series with Priestia megaterium; 12.5% in the series with Pseudomonas aeruginosa [1]; 31% with Bacillus subtilis; 23% in the series on Klebsiella pneumoniae [2]; 0% in the series with Pseudomonas fluorescens; 84.6% in the series with Escherichia coli [3]. Further, the inhibition at 200 µg/mL in the series on Klebsiella pneumoniae [4] stood at 16%.
`Cc1ccc2[nH]c3c(c2c1)CCC(=C\c1cccc(Br)c1)/C3=C(\C#N)C(N)=O`: the inhibition at 200 µg/mL was 6.3% with Priestia megaterium; 13.2% in the series on Pseudomonas aeruginosa [1]; 10% with Bacillus subtilis; 28.3% with Klebsiella pneumoniae [2]; 12% in the series on Pseudomonas fluorescens; 33.5% in the series with Escherichia coli [3]. The inhibition at 200 µg/mL in the series with Klebsiella pneumoniae [4] is 20.7%.
On to `Cc1ccc2[nH]c3c(c2c1)CCC(=C\c1ccccc1)/C3=C(\C#N)C(N)=O`, for which the inhibition at 100 µg/mL in the series with Pseudomonas aeruginosa [8] is 79%; with Escherichia coli [6] it was 89%. For the same molecule, the inhibition at 200 µg/mL in the series on Priestia megaterium turned out to be 21.4%; in the series on Pseudomonas aeruginosa [1], 81%; in the series with Bacillus subtilis, 23%; with Klebsiella pneumoniae [2], 71%; in the series with Pseudomonas fluorescens, 31%; in the series on Escherichia coli [3], 85%. Besides, the inhibition at 200 µg/mL in the series with Klebsiella pneumoniae [4] worked out at 71%. Also, the Activity result is “Toxic” in the series on HEK293 [9] and “Non-Toxic” with HEK293 [15]. The result with Pseudomonas aeruginosa [10], in the series with Escherichia coli [11], in the series with Klebsiella pneumoniae [12], in the series with Klebsiella pneumoniae [13] and in the series on Escherichia coli [14] was Active. In the series on Escherichia coli [16], the “fold change (FC)” value is given as 2.
As for `CCOc1ccc(/C=C2\CCc3c([nH]c4ccc(C)cc34)\C2=C(\C#N)C(N)=O)cc1OCC`, the inhibition at 200 µg/mL in the series with Priestia megaterium was 11.2%; with Pseudomonas aeruginosa [1], 29.3%; in the series with Bacillus subtilis, 8%; in the series with Klebsiella pneumoniae [2] it was 23.3%; in the series on Pseudomonas fluorescens, 18%; with Escherichia coli [3] it was 27.4%. In the series with Klebsiella pneumoniae [4], the inhibition at 200 µg/mL is 16%.
Turning to `Cc1cccc2c3c([nH]c12)C(=C(/C#N)C(N)=O)/C(=C/c1ccccc1)CC3`, the inhibition at 200 µg/mL in the series on Priestia megaterium amounted to 31.4%; with Pseudomonas aeruginosa [1], 4.3%; with Bacillus subtilis it was 23%; in the series on Klebsiella pneumoniae [2], 1.9%; in the series with Pseudomonas fluorescens, 0%; in the series on Escherichia coli [3] it was 14.6%. In the series with Klebsiella pneumoniae [4], the inhibition at 200 µg/mL was found to be 21%.
